Like-named read-outs stand apart in the source and are kept apart here.
What was measured:
[1] = cited from earlier work; for T½: as printed in head of release profile table, Example 3
[2] = FIG. 2A, IR administration (memantine 20 mg bid, lamotrigine 200 mg qd); cited from earlier work
[3] = test system: mouse electroshock model; experiment: Dose ranging study in seizure model (mouse electroshock model); format: in vivo; settings: seizure model (e.g., mouse electroshock model)
Description: An isobolic experiment ensues where the drugs are combined in fractions of their EDXXs to add up to ED100 (i.e., ED50:ED50, ED25:ED75, etc.). The plot of the data is constructed. The experiment points that lie below the straight line between the ED50 points on the graph are indicative of synergy, points on the line are indicative of additive effects, and points above the line are indicative of inhibitory effects. The point of maximum deviation from the isobolic line is the optimal ratio. This is the optimal steady state ratio (Cratio,ss) and is adjusted based upon the component half-lives. Similar protocols may be applied in a wide variety of validated animal models.

[4] = Release profile (cumulative fraction released from formulation matrix to serum or gut environment); format: physicochemical

Row | Structure (SMILES) | Human PK (t½) ([1]; humans) [h] | Tmax ([1]; humans) [h] | Tmax [2] [h] | T½ [2] [h] | ED50 [3] | cum. fraction ([4]; Time 1) | cum. fraction ([4]; Time 2) | cum. fraction ([4]; Time 4) | cum. fraction ([4]; Time 8) | cum. fraction ([4]; Time 12) | cum. fraction ([4]; Time 16) | cum. fraction ([4]; Time 20) | cum. fraction ([4]; Time 24) | T½ [1] | Human PK (t½) in hrs ([1]; humans) [hr for hrs]
1 | NCC1(CC(=O)O)CCCCC1 [Gabapentin] | 6 | 3 |  |  |  |  |  |  |  |  |  |  |  |  | 
2 | Nc1nnc(-c2cccc(Cl)c2Cl)c(N)n1 [Lamotrigine] | 12 | 2 | 2 | 12 |  |  |  |  |  |  |  |  |  |  | 
3 | CC12CC3CC(C)(C1)CC(N)(C3)C2 [Memantine, 1-amino-3,5-dimethyladamantane] |  |  | 3 |  | approximately 12 μM | 0.2 | 0.3 | 0.4 | 0.5 | 0.6 | 0.7 | 0.8 | 0.9 | MEMANTINE T½ = 60 hrs | 
4 | NC(=O)N1c2ccccc2CC(=O)c2ccccc21 [Oxcarbazepine] |  | 4.5 |  |  |  |  |  |  |  |  |  |  |  |  | 2
5 | CC1(C)O[C@@H]2[C@@H](CO[C@@]3(COS(N)(=O)=O)OC(C)(C)O[C@@H]23)O1 [Topiramate] | 21 | 2 |  |  | approximately 5 μM |  |  |  |  |  |  |  |  |  | 
6 | NS(=O)(=O)Cc1noc2ccccc12 [Zonisamide] | 63 | 4 |  |  |  | 0.2 | 0.3 | 0.4 | 0.5 | 0.6 | 0.7 | 0.8 | 0.9 | ZONISAMIDE T½ = 60 hrs | 

— US20090306051A1, “Methods and compositions for the treatment of epilepsy, seizure disorders, and other CNS disorders” (priority 2004, published 2009)
